US12257243B2, “5-hydroxy-7-oxabicyclo[2.2.1]heptane-2-carboxamide derivatives for inducing chondrogenesis for treating joint damage” (NOVARTIS AG, priority 2018, dated 2025)
Like-named read-outs stand apart in the source and are kept apart here.

Tested on: ALP in normal human articular chondrocytes (NHACs)
Experiment: Alkaline Phosphatase (ALP) activity assay (staining and quantitation) in NHACs, prevention of chondrocyte hypertrophy
Type: cell-based
Settings: human IL-1 beta 10 ng/mL, 12 days; for IC50: Fast Blue RR staining, high content imaging, read-out: ALP in NHAC IC50; for Emax / ALP in NHAC (% Efficacy): value in parentheses; for Emax: read-out: ALP in NHAC (% Efficacy)
Protocol: The compounds of the present invention were evaluated in the Alkaline Phosphatase (ALP) activity assay to determine the ability of the compounds to prevent chondrocyte hypertrophy in normal human articular chondrocytes (NHACs).
Normal human articular chondrocytes (NHACs) were purchased from PromoCell (Heidelberg, Germany) and grown in Chondrocyte Growth Medium (CGM; Lonza, Walkersville, Md.).
NHACs were expanded in Chondrocyte Growth Medium (CGM) from Lonza until they reached a 60-80% confluency. To initiate differentiation, 7,500 cells were plated/well with indicated test compound dose in 384-well Cell Carrier Ultra plates (Perkin Elmer) with DMEM (SH30022—HyClone) containing 10% FBS (35-015-CV—Corning), 1% Pen/Strep antibiotics (SV30010—HyClone), and 1% Normocin (50 mg/mL—InvivoGen). Cells with test compounds were incubated at 37° C., 5% CO2 for 5 hours and then added human IL-1 beta (AF-200-1B—Peprotech) to each well at a final concentration of 10 ng/mL and incubated at 37° C., 5% CO2 for 12 days.
To detect the presence of hypertrophic cells, NHACs were fixed with 4% paraformaldehyde and Hoechst 33342 (Invitrogen) dye for 30 minutes, rinsed in PBS, then stained with Fast Blue RR Salt (F0500—Sigma) with Naphthol AS-MX Phosphate Alkaline Solution, 0.25% (855—Sigma-Aldrich).
The staining was imaged by fluorescent microscopy, using the 561 nm wavelength, and/or quantified by high content imaging with the Image press Confocal (Molecular Devices, Sunnyvale, Calif.). Data analyses were performed with a customized multiwavelength cell-scoring application.

## Cn1nc(C(F)(F)F)cc1[C@H]1[C@H]2O[C@H](C[C@@H]2O)[C@@H]1C(=O)Nc1ccc(C(F)(F)F)c(Cl)c1 (racemic) [Example 73, rac-(1R,2R,3S,4R,5)-N-(3-chloro-4-trifluoromethyl)phenyl)-5-hydroxy-3-(1-methyl-3-(trifluoromethyl)-1H-pyrazol-5-yl)-7-oxabicyclo[2.2.1]heptane-2-carboxamide]
Chondrocyte, 288 h
  IC50: 7.1 µM
  Emax: 105%

## O=C(Nc1cc(C(F)(F)F)cc(Cl)n1)[C@@H]1[C@@H](c2cccc(C(F)(F)F)c2)[C@H]2O[C@@H]1C[C@@H]2O (racemic) [Example 5, rac-(1R,2R,3S,4R,5S)—N-(6-chloro-4-(trifluoromethyl)pyridin-2-yl)-5-hydroxy-3-(3-(trifluoromethyl)phenyl)-7-oxabicyclo[2.2.1]heptane-2-carboxamide]
Chondrocyte, 288 h
  IC50: 27 µM
  Emax: 82%

## Cc1cc(NC(=O)[C@@H]2[C@@H](c3ccnc(C(F)(F)F)c3)[C@H]3O[C@@H]2C[C@@H]3O)cc(C(F)(F)F)c1 (racemic) [Example 65, rac-(1R,2R,3S,4R,5S)-5-hydroxy-N-(3-methyl-5-(trifluoromethyl)phenyl)-3-(2-(trifluoromethyl)pyridin-4-yl)-7-oxabicyclo[2.2.1]heptane-2-carboxamide]
Chondrocyte, 288 h
  IC50: 20 µM
  Emax: 57%

## CCOc1ccc(NC(=O)[C@@H]2[C@@H](c3cccc(C(F)(F)F)c3)[C@H]3O[C@@H]2C[C@@H]3O)cc1C(F)(F)F (racemic) [Example 24, rac-(1R,2R,3S,4R,5S)—N-(4-ethoxy-3-trifluoromethyl)phenyl)-5-hydroxy-3-(3-(trifluoromethyl)phenyl)-7-oxabicyclo[2.2.1]heptane-2-carboxamide]
Chondrocyte, 288 h
  IC50: 14 µM
  Emax: 108%

## Cn1cc([C@H]2[C@H]3O[C@H](C[C@@H]3O)[C@@H]2C(=O)Nc2ccc(C(F)(F)F)cc2)c(C(F)(F)F)n1 (racemic) [Example 29, rac-(1R,2R,3S,4R,5S)-5-hydroxy-3-(1-methyl-3-trifluoromethyl)-1H-pyrazol-4-yl)-N-(4-(trifluoromethyl)phenyl)-7-oxabicyclo[2.2.1]heptane-2-carboxamide]
Chondrocyte, 288 h
  IC50: 11 µM
  Emax: 72%

## N#Cc1ccc(C(F)(F)F)cc1NC(=O)[C@@H]1[C@@H](c2cccc(C(F)(F)F)c2)[C@H]2O[C@@H]1C[C@@H]2O (racemic) [Example 48, rac-(1R,2R,3S,4R,5S)—N-(2-cyano-5-(trifluoromethyl)phenyl)-5-hydroxy-3-(3-(trifluoromethyl)phenyl)-7-oxabicyclo[2.2.1]heptane-2-carboxamide]
Chondrocyte, 288 h
  IC50: 0.088 µM
  Emax: 92%

## Cn1cc([C@H]2[C@H]3O[C@H](C[C@@H]3O)[C@@H]2C(=O)Nc2cccc(C(F)(F)F)c2F)c(C(F)(F)F)n1 (racemic) [Example 57, rac-(1R,2R,3S,4R,5S)—N-(2-fluoro-3-(trifluoromethyl)phenyl)-5-hydroxy-3-(1-methyl-3-(trifluoromethyl-1H-pyrazol-4-yl)-7-oxabicyclo[2.2.1]heptane-2-carboxamide]
Chondrocyte, 288 h
  IC50: > 30 µM
  Emax: 50%

## O=C(Nc1ccc(C(F)(F)F)cn1)[C@@H]1[C@@H](c2cccc(C(F)(F)F)c2)[C@H]2O[C@@H]1C[C@@H]2O (racemic) [Example 26, rac-(1R,2R,3S,4R,5S)-5-hydroxy-3-(3-(trifluoromethyl)phenyl)-N-(5-(trifluoromethyl)pyridin-2-yl-7-oxabicyclo[2.2.1]heptane-2-carboxamide]
Chondrocyte, 288 h
  IC50: 11 µM
  Emax: 112%

## COc1cc([C@H]2[C@H]3O[C@H](C[C@@H]3O)[C@@H]2C(=O)Nc2cc(C)cc(C(F)(F)F)c2)ccn1 (racemic) [Example 69, rac-(1R,2R,3S,4R,5S)-5-hydroxy-3-(2-methoxypyridin-4-yl)-N-(3-methyl-5-(trifluoromethylphenyl)-7-oxabicyclo[2.2.1]heptane-2-carboxamide]
Chondrocyte, 288 h
  IC50: 25 µM
  Emax: 29%

## Cc1c(NC(=O)[C@@H]2[C@@H](c3cn(C)nc3C(F)(F)F)[C@H]3O[C@@H]2C[C@@H]3O)cccc1C(F)(F)F (racemic) [Example 42, rac-(1R,2R,3S,4R,5S)-5-hydroxy-3-(1-methyl-3-(trifluoromethyl)-1H-pyrazol-4-yl)-N-(2-methyl-3-(trifluoromethyl)phenyl)-7-oxabicyclo[2.2.1]heptane-2-carboxamide]
Chondrocyte, 288 h
  IC50: > 30 µM
  Emax: 21%

## N#Cc1ccc(C(F)(F)F)cc1NC(=O)[C@@H]1[C@@H](c2cccc(C(F)(F)F)c2)[C@H]2O[C@@H]1C[C@@H]2O (single isomer, unassigned) [Example 48a, (1R,2R,3S,4R,5S)—N-(2-cyano-5-(trifluoromethyl)phenyl)-5-hydroxy-3-(3-(trifluoromethyl)phenyl)-7-oxabicyclo[2.2.1]heptane-2-carboxamide or (1S,2S,3R,4S,5R)—N-(2-cyano-5-(trifluoromethyl)phenyl)-5-hydroxy-3-(3-(trifluoromethyl)phenyl)-7-oxabicyclo[2.2.1]heptane-2-carboxamide]
  IC50: 1.5 µM
  ALP in NHAC (% Efficacy): 109%

## COc1cc(NC(=O)[C@@H]2[C@@H](c3cccc(C(F)(F)F)c3)[C@H]3O[C@@H]2C[C@@H]3O)cc(C(F)(F)F)c1 (racemic) [Example 21, rac-(1R,2R,3S,4R,5S)-5-hydroxy-N-(3-methoxy-5-trifluoromethyl)phenyl)-3-(3-(trifluoromethyl)phenyl)-7-oxabicyclo[2.2.1]heptane-2-carboxamide]
Chondrocyte, 288 h
  IC50: 24 µM
  Emax: 104%

## COc1cc([C@H]2[C@H]3O[C@H](C[C@@H]3O)[C@@H]2C(=O)Nc2cc(C(F)(F)F)ccn2)ccn1 (racemic) [Example 77, rac-(1R,2R,3S,4R,5)-5-hydroxy-3-(2-methoxypyridin-4-yl)-N-(4-(trifluoromethyl)pyridin-2-yl)-7-oxabicyclo[2.2.1]heptane-2-carboxamide]
Chondrocyte, 288 h
  IC50: 15 µM
  Emax: 76%

## O=C(Nc1ccc(C(F)(F)F)c(Cl)n1)[C@@H]1[C@@H](c2cccc(C(F)(F)F)c2)[C@H]2O[C@@H]1C[C@@H]2O (single isomer, unassigned) [Example 25b, (1R,2R,3S,4R,5S)—N-(6-chloro-5-(trifluoromethyl)pyridin-2-yl)-5-hydroxy-3-(3-(trifluoromethyl)phenyl)-7-oxabicyclo[2.2.1]heptane-2-carboxamide or (1S,2S,3R,4S,5R)—N-(6-chloro-5-(trifluoromethylpyridin-2-yl)-5-hydroxy-3-(3-(trifluoromethyl)phenyl)-7-oxabicyclo[2.2.1]heptane-2-carboxamide]
  IC50: 0.84 µM
  ALP in NHAC (% Efficacy): 99%

## Cc1ccc(NC(=O)[C@@H]2[C@@H](c3cccc(C(F)(F)F)c3)[C@H]3O[C@@H]2C[C@@H]3O)cc1C(F)(F)F (racemic) [Example 12, rac-(1R,2R,3S,4R,5S)-5-hydroxy-N-(4-methyl-3-trifluoromethylphenyl)-3-(3-(trifluoromethyl)phenyl)-7-oxabicyclo[2.2.1]heptane-2-carboxamide]
Chondrocyte, 288 h
  IC50: 9.8 µM
  Emax: 102%

## Cc1cc(C(F)(F)F)cc(NC(=O)[C@@H]2[C@@H](c3cccc(C(F)(F)F)c3)[C@H]3O[C@@H]2C[C@@H]3O)n1 (racemic) [Example 8, rac-(1R,2R,3S,4R,5S)-5-hydroxy-N-(6-methyl-4-(trifluoromethyl)pyridin-2-yl)-3-(3-(trifluoromethyl)phenyl)-7-oxabicyclo[2.2.1]heptane-2-carboxamide]
Chondrocyte, 288 h
  IC50: 17 µM
  Emax: 100%

## Cn1cc([C@H]2[C@H]3O[C@H](C[C@@H]3O)[C@@H]2C(=O)Nc2cc(C(F)(F)F)cc(C3CC3)n2)c(C(F)(F)F)n1 (racemic) [Example 40, rac-(1R,2R,3S,4R,5S)—N-(6-cyclopropyl-4-(trifluoromethyl)pyridin-2-yl)-5-hydroxy-3-(1-methyl-3-(trifluoromethyl)-1H-pyrazol-4-yl)-7-oxabicyclo[2.2.1]heptane-2-carboxamide]
Chondrocyte, 288 h
  IC50: 10 µM
  Emax: 83%

## O=C(Nc1ccc(C(F)(F)F)cc1)[C@@H]1[C@@H](c2ccnc(C(F)(F)F)c2)[C@H]2O[C@@H]1C[C@@H]2O (racemic) [Example 66, rac-(1R,2R,3S,4R,5S)-5-hydroxy-N-(4-(trifluoromethyl)phenyl)-3-(2-(trifluoromethyl)pyridin-4-yl)-7-oxabicyclo[2.2.1]heptane-2-carboxamide]
Chondrocyte, 288 h
  IC50: 15 µM
  Emax: 66%

## Cn1cc([C@H]2[C@H]3O[C@H](C[C@@H]3O)[C@@H]2C(=O)Nc2cc(C(F)(F)F)c(Cl)cn2)c(C(F)(F)F)n1 (racemic) [Example 36, rac-(1R,2R,3S,4R,5S)—N-(5-chloro-4-(trifluoromethyl)pyridin-2-yl)-5-hydroxy-3-(1-methyl-3-(trifluoromethyl)-1H-pyrazol-4-yl)-7-oxabicyclo[2.2.1]heptane-2-carboxamide]
Chondrocyte, 288 h
  IC50: 3.6 µM
  Emax: 92%
